Reference: ChEMBL document CHEMBL1133427, “Membrane-permeant, bioactivatable analogues of cGMP as inducers of cell death in IPC-81 leukemia cells” (Bioorg Med Chem Lett, 2000)
Active and inactive are the calls of the source. No cut-off for these calls is given here.

How the values were obtained:
Rattus norvegicus = species on record: Rattus norvegicus; test: Compound was tested as initiator of cell death in IPC-81 leukemia cells; Inactive; format: functional, cell-based
[1] = Effective dose of compound required to induce death in IPC-81 leukemia cells; Range 40-80; format: functional, cell-based, Rattus norvegicus

| Structure (SMILES) | Activity (Rattus norvegicus) | EC50 [1] |
| --- | --- | --- |
| CC(=O)OCOP1(=O)OC[C@@H]2O[C@@H](N3C(Sc4ccc(Cl)cc4)=NC4C(=O)N=C(N)N=C43)[C@H](O)[C@@H]2O1 (stereo partly specified) | inactive | – |
| CC(=O)OCOP1(=O)OC[C@@H]2O[C@@H](n3cnc4c(=O)n(C)c(N)nc43)[C@H](O)[C@@H]2O1 (stereo partly specified) | inactive | 80 µM |
| CC(=O)OCOP1(=O)OC[C@@H]2O[C@@H](n3c(Br)nc4c(O)nc(N)nc43)[C@H](O)[C@@H]2O1 (stereo partly specified) | inactive | 80 µM |
| CC(=O)OCOP1(=O)OCC2OC(n3cnc4c(=O)n(C)c(N)nc43)CC(O)C2O1 (stereo unspecified) | inactive | – |
